Experimental data taken from article PMC10743895, “Synthesis of 1,3,4-Thiadiazole Derivatives and Their Anticancer Evaluation” (International Journal of Molecular Sciences, 2023).
Where two headings read alike, the source gives them in different places.

Columns and labels:
HUVEC normal cells = assay: MTS cell viability assay, HUVEC normal cells; type: cell-based, human; settings: Homo sapiens, HUVEC
Experimental: (§1) To determine the optimal working concentration, dose-effect curves were made for each compound in the range of concentrations between 6.25 and 400 μM.
(§2) LoVo (human colorectal adenocarcinoma) human cancer cell line and HUVEC normal cells were purchased from American Type Culture Collection (ATCC). The MCF-7 human breast adenocarcinoma cell line was provided from European Collection of Authenticated Cell Cultures (ECACC). HUVEC normal cells, isolated from the vascular endothelium of an umbilical cord, were used as a reference. Adherent cells were maintained in culture in Dulbecco’s modified Eagle medium/nutrient mixture F-12 (DMEM:F12) with 2 mM of L-glutamine, 10% fetal bovine serum, 100 units/mL of penicillin and 100 μg/mL of streptomycin, and incubated at 37 °C in a 5% CO2-humidified atmosphere. After 24 h, adherent cells were treated with different concentrations of the compounds for different periods of time. Cis-Pt and DOX, conventional oncology drugs used in cancer treatments, can be used as a positive control of the experiments. […] Then, cells were detached with a nonenzymatic solution of phosphate-buffered saline (PBS)/1 mM EDTA and washed twice in PBS.
(§3) The study utilized a colorimetric assay based on MTS (chemically known as 3-(4,5-dimethylthiazol-2-yl)-5-(3-carboxymethoxyphenyl)-2-(4-sulfophenyl)-2H-tetrazolium) and called CellTiter 96 Aqueous One Solution Cell proliferation Assay (Promega, Madison, WI, USA) in order to measure cell viability. The assay was performed in triplicate in 96-well microtiter plates with a flat bottom (Falcon). A number of 1 × 10^4 cells/well were cultured in 100 μL for 24 h, culture supernatants were discarded, and then cells were treated for 24 and 48 h with increasing concentrations of the tested compound. After the end of the incubation time, 20 μL of the reagent containing MTS and PES (phenazine ethosulfate) was added in each well. Plates were incubated for 4 h at 37 °C, with mild agitation every 15 min. The reduction in the tetrazolium compound to formazan was spectrophotometrically measured at λ = 492 nm using a Dynex plate reader (DYNEX Technologies MRS, Chantilly, VA, USA). The percentage of viability compared to untreated cells (considered 100% viable) was calculated with the formula:(1) Cell viability (%)=Absorbance treated cells−Absorbance culture medium/Absorbance untreated cells−Absorbance culture medium×100
(§4) The cell viability compared was calculated and data were expressed as a mean ± standard deviation (SD) of the experiments and obtained in triplicate (n = 3).

LoVo cells [1] = assay: MTS cell viability assay, LoVo cells; type: cell-based, human; settings: Homo sapiens, LoVo
Experimental: as §1, §2, §3, §4

MCF-7 cells [2] = assay: MTS cell viability assay, MCF-7 cells; type: cell-based, human; settings: Homo sapiens
Experimental: as §1, §2, §3, §4

HUVEC cells = assay: Apoptosis assay (Annexin V-FITC/PI flow cytometry), HUVEC; type: cell-based, human
Experimental: (§5) Two reference concentrations, 5 μM and 50 μM, and two distinct treatment durations, 24 and 48 h, were employed to assess the influence of the test compounds on apoptosis in both normal and tumor cells. […] HUVEC cells were exposed to both drugs.
(§6) The apoptosis assay was performed according to the manufacturer’s instructions using the Annexin V-FITC kit (BD Biosciences, San Jose, CA, USA). Cells untreated and treated with the experimental compound were suspended in a cold binding buffer. The percentages of apoptotic cells were determined by double staining with Annexin V-FITC/PI. In each tube was added 400 μL of Annexin V binding buffer and the 5000 cells/sample for 15 min in the dark at room temperature. The cells were analyzed using a FACSCantoII flow-cytometer (Becton Dickinson—BD, La Jolla, CA, USA). The analysis was performed using DIVA 6.2 software to discriminate viable cells (FITC-PI-) from necrotic cells (FITC + PI+), and early apoptosis (FITC + PI) from late apoptosis.

LoVo cells [3] = assay: Apoptosis assay (Annexin V-FITC/PI flow cytometry), LoVo; type: cell-based, human
Experimental: as §5, §6

MCF-7 cells [4] = assay: Apoptosis assay (Annexin V-FITC/PI flow cytometry), MCF-7; type: cell-based, human
Experimental: as §5, §6

[5] = Daphnia magna toxicity assay; type: in vivo; settings: Daphnia magna, in vivo
Experimental: (§7) The Daphnia magna bioassay results are presented in Table 3 as the maximum average percentage of lethality (L%) registered for each compound and the median lethal concentration (LC50) if the values permitted its calculation.
(§8) Daphnia magna Straus is parthenogenetically maintained at ‘Carol Davila’ University’s Department of Pharmaceutical Botany and Cell Biology. The culture was consistently maintained at a temperature of 25 °C, with a 16-h light and 8-h dark photoperiod. To ensure consistency, young daphnids were carefully chosen based on their size and kept in an artificial medium for 24 h prior to the assessment. The bioassay involved 10 daphnids per replicate, using tissue culture plates with 12 wells from Greiner Bio-One. The experimental procedure followed the protocol described in previous studies.
(§9) Each determination was carried out in duplicate.

Daphnia magna = Daphnia magna toxicity assay; type: in vivo; settings: up to 200 µM
Experimental: as §7, §8, §9

MCF-7 = system: MCF-7; parameters: method as in earlier work; settings: ref 16 (Yang et al.); cited from earlier work
[6] = read-out: IC50 (48 h) HUVEC, 48 h exposure
[7] = 24 h exposure, read-out: IC50 (24 h) HUVEC
[8] = read-out: IC50 (48 h) LoVo, 48 h exposure
[9] = 24 h exposure, read-out: IC50 (24 h) LoVo
[10] = MCF7, read-out: IC50 (48 h) MCF-7, 48 h exposure
[11] = MCF7, 24 h exposure, read-out: IC50 (24 h) MCF-7

Row | Compound | IC50 (HUVEC normal cells; [6]) [µM] | IC50 (HUVEC normal cells; [7]) [µM] | IC50 (LoVo cells [1]; [8]) [µM] | IC50 (LoVo cells [1]; [9]) [µM] | IC50 (MCF-7 cells [2]; [10]) [µM] | IC50 (MCF-7 cells [2]; [11]) [µM] | Total Apoptosis (%) 24 h HUVEC (HUVEC cells; 5 μM) [%] | Total Apoptosis (%) 48 h HUVEC (HUVEC cells; 5 μM) [%] | Total Apoptosis (%) 24 h HUVEC (HUVEC cells; 50 μM) [%] | Total Apoptosis (%) 48 h HUVEC (HUVEC cells; 50 μM) [%] | Total Apoptosis (%) 24 h LoVo (LoVo cells [3]; 5 μM) [%] | Total Apoptosis (%) 48 h LoVo (LoVo cells [3]; 5 μM) [%] | Total Apoptosis (%) 24 h LoVo (LoVo cells [3]; 50 μM) [%] | Total Apoptosis (%) 48 h LoVo (LoVo cells [3]; 50 μM) [%] | Total Apoptosis (%) 24 h MCF-7 (MCF-7 cells [4]; 5 μM) [%] | Total Apoptosis (%) 48 h MCF-7 (MCF-7 cells [4]; 5 μM) [%] | Total Apoptosis (%) 24 h MCF-7 (MCF-7 cells [4]; 50 μM) [%] | LC50 at 48 h [5] [µM] | Maximum Average L% (lethality) (Daphnia magna; 24 h) [%] | Maximum Average L% (lethality) (Daphnia magna; 48 h) [%] | further results
1 | CC(=O)Nc1nnc(-c2ccccc2)s1 [3a, N-(5-Phenyl-1,3,4-thiadiazol-2-yl)acetamide] | > 400 | > 400 | > 400 | > 400 | > 400 | > 400 | 26.6 | 18.2 | 22.6 | 20.1 | 14.9 | 20.1 | 14.5 | 22.3 | 17.6 | 24.9 | 17.9 | < 6.25 | 95 | 100 | LC50 at 24 h [5]: < 6.25 µM
2 | O=C(Nc1nnc(-c2ccccc2)s1)c1ccccc1CSc1ccccc1 [3c, 2-Phenylthiomethyl-N-(5-phenyl-1,3,4-thiadiazol-2-yl)benzamide] | > 400 | > 400 | > 400 | > 400 | > 400 | > 400 | 15.5 | 13.5 | 16.9 | 14.7 | 14.8 | 27.6 | 11.2 | 24.5 | 16.4 | 39.3 | 14.3 | 188 | 10 | 55 | Total Apoptosis (%) 48 h MCF-7 (MCF-7 cells [4]; 50 μM): 37.3%
3 | O=C(Nc1nnc(-c2ccccc2)s1)c1ccccc1 [3b, N-(5-Phenyl-1,3,4-thiadiazol-2-yl)benzamide] | > 400 | > 400 | 62.5 | 174 | > 400 | > 400 | 17.8 | 15.3 | 17.0 | 15.9 | 12.5 | 22.2 | 12.6 | 20.9 | 19.2 | 43.7 | 16.4 | 228 | 5 | 45 | viability at 200 µM (LoVo cells [1]; 24 h, 200 μM, read-out: viability of LoVo tumor cells): < 50%; Total Apoptosis (%) 48 h MCF-7 (MCF-7 cells [4]; 50 μM): 41.3%; IC50 (MCF-7): 5.87 µM
4 | COc1ccc(OC)c(-c2nnc(N)s2)c1 [2d, 5-(2,5-Dimethoxyphenyl)-1,3,4-thiadiazol-2-amine] | 94.8 | > 400 | 29.2 | 53.6 | 122 | 154 | 28.4 | 14.4 | 19.8 | 16.8 | 13.5 | 19.3 | 12.0 | 17.9 | 14.6 | 37.6 | 11.8 | 50.7 | 40 | 95 | Total Apoptosis (%) 48 h MCF-7 (MCF-7 cells [4]; 50 μM): 34.9%; LC50 at 24 h [5]: 241 µM
